Assay results as given in article PMC9957770, “Mass spectrometry imaging–based assays for aminotransferase activity reveal a broad substrate spectrum for a previously uncharacterized enzyme” (The Journal of Biological Chemistry, 2023).

Target: T1, AtTAT1 (Arabidopsis thaliana, UniProt Q9FN30)
T1 construct: gene At5g53970; pET28a construct of Wang et al. (2016), His-tagged, expressed in E. coli Rosetta-2 (DE3), HisTrap purified
T1 sequence (Q9FN30 1-414): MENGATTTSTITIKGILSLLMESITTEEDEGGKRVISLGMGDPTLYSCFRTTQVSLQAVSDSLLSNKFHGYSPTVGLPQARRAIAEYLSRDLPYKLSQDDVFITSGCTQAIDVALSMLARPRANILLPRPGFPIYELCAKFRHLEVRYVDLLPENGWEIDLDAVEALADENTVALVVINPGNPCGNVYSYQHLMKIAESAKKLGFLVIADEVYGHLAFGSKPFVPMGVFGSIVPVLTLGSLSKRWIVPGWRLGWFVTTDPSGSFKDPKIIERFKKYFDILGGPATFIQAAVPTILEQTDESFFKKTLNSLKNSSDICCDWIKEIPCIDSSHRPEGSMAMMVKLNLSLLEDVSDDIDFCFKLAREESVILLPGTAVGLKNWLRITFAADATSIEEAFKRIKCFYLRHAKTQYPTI
Experiment: oxime tagging with NIMS mass spectrometry imaging
Format: biochemical
Conditions: 10 mM amino donor, 6 mM alpha-ketoglutarate, 0.5 mM PLP, 100 mM HEPES, final pH 7.6 to 8.0, 30 °C, 60 min

Structure (SMILES) | oxime tagging with NIMS mass spectrometry imaging
N[C@@H](Cc1ccccc1)C(=O)O [phenylalanine] | AtTAT1 can use Tyr, histidine (His), leucine (Leu), methionine (Met), phenylalanine (Phe), and tryptophan (Trp)
N[C@@H](Cc1ccc(O)cc1)C(=O)O [tyrosine] | AtTAT1 can use Tyr, histidine (His), leucine (Leu), methionine (Met), phenylalanine (Phe), and tryptophan (Trp)
